From paper PMC12516557, “Isolation and characterization of peroxidase from potato leaves Solanum tuberosum: Application in glucose diagnostic kit” (Journal of Genetic Engineering & Biotechnology, 2025)

System: T1, potato leaves peroxidase (PLPOD)
T1 construct: gene POD; native enzyme from mature leaves (Nile Delta, Egypt); CM-cellulose and Sephacryl S-300; 64 kDa by gel filtration; 3 activity bands ~40-65 kDa on SDS-PAGE
Test: guaiacol oxidation at […] nm, Lineweaver-Burk plot
Format: biochemical, Solanum tuberosum
Settings: co-substrate H2O2; sodium acetate buffer pH 5.6 (general assay); mixture of isoenzymes; discussion b65 prints 0.066 mM

Km: 67 µM
SMILES: COc1ccccc1O [guaiacol]
